The source of these data is US20260049106A1, “PEPTIDE COMPOSITIONS AND METHODS OF USE” (ONL Therapeutics, Inc., priority 2022, published 2026).

Ends that are not written are not given here.

The first assay relates to Jurkat cells. In words: Cell viability preservation in vitro: cell confluence of Jurkat cells after 24-hour incubation with or without recombinant His-tagged FasL and anti-His antibody. The format is cell-based. The conditions noted are these: Incucyte / Vi-CELL. As to the method:
Compounds (oligopeptides) of the present disclosure were assayed for their ability to effect cell confluence following a 24-hour incubation. Jurkat cells were incubated for 24 hours with varying concentrations of compound (i.e., 200, 66.7, 22.2, 7.4, 2.5, 0.8, 0.3, and 0.1) and with or without recombinant His-tagged FasL along with an anti-His antibody. After the 24-hour incubation, cell confluence was quantified using an S3 Incucyte Imaging System (Sartorius) and a Vi-CELL XR Cell Viability Analyzer (Beckman Coulter) and compared to controls (cells incubated in the absence of compound and cells incubated with a known Fas inhibitor).
For the substance “HHIYLGAVNYIY-NH2 [Compound A, reference compound]”, the “Activity (lowest concentration that prevented loss of cell confluency)” value is listed as “A (cell protection at x < 1.0 μM)”.

As for “NH2-HHIAAGAVNYIY-C(O)NH2 (H-HHIAAGAVNYIY-NH2) [Compound 6]”, the “Activity (lowest concentration that prevented loss of cell confluency)” value is reported as “B (cell protection at 1.0 < x < 10.0 μM)”.

“NH2-HHIYLGGGGGNYIY-C(O)NH2 (H-HHIYLGGGGGNYIY-NH2) [Compound 7]”: the “Activity (lowest concentration that prevented loss of cell confluency)” value is “B (cell protection at 1.0 < x < 10.0 μM)”.

Regarding “NH2-HHIYLGSSSSNYIY-C(O)NH2 (H-HHIYLGSSSSNYIY-NH2) [Compound 8]”, the “Activity (lowest concentration that prevented loss of cell confluency)” value is reported as “B (cell protection at 1.0 < x < 10.0 μM)”.

With “NH2-HKIYLGAVNYIY-C(O)NH2 (H-HKIYLGAVNYIY-NH2) [Compound 11]”, the “Activity (lowest concentration that prevented loss of cell confluency)” value is reported as “B (cell protection at 1.0 < x < 10.0 μM)”.

On to “NH2-KHIYLGAVNYIY-C(O)NH2 (H-KHIYLGAVNYIY-NH2) [Compound 10]”, for which the “Activity (lowest concentration that prevented loss of cell confluency)” value is given as “A (cell protection at x < 1.0 μM)”.

Turning to “NH2-KKIYLGAVNYIY-C(O)NH2 (H-KKIYLGAVNYIY-NH2) [Compound 9]”, the “Activity (lowest concentration that prevented loss of cell confluency)” value is on record as “B (cell protection at 1.0 < x < 10.0 μM)”.

Tested on in the next assay: not given
Assay: not given
The conditions noted are these: apparently clear solution in 20 mM citrate buffer pH 2.8, in vitro and in vivo assays; cited from earlier work.
As to “H^60HIYLGAVNYIY^71 (HHIYLGAVNYIY) [Met-12]”, the loss in activity result is on record as “at least a fivefold loss in activity”.

Another assay deals with photoreceptor cells.
Assay: not given
The conditions noted are these: cell culture experiments; separation of the retinal and retinal pigment epithelium; cited from earlier work.
For the substance “H^60HIYLGAVNYIY^71 (HHIYLGAVNYIY) [Met-12]”, the photoreceptor protection entry is on record as “photoreceptor protective”.
